Test results from ChEMBL document CHEMBL5244205, “Discovery of tricyclic dipyrrolopyridine derivatives as novel JAK inhibitors” (Bioorg Med Chem, 2017).

Target: T1, Tyrosine-protein kinase JAK3 (Homo sapiens, UniProt P52333)
T1 sequence (P52333 whole entry): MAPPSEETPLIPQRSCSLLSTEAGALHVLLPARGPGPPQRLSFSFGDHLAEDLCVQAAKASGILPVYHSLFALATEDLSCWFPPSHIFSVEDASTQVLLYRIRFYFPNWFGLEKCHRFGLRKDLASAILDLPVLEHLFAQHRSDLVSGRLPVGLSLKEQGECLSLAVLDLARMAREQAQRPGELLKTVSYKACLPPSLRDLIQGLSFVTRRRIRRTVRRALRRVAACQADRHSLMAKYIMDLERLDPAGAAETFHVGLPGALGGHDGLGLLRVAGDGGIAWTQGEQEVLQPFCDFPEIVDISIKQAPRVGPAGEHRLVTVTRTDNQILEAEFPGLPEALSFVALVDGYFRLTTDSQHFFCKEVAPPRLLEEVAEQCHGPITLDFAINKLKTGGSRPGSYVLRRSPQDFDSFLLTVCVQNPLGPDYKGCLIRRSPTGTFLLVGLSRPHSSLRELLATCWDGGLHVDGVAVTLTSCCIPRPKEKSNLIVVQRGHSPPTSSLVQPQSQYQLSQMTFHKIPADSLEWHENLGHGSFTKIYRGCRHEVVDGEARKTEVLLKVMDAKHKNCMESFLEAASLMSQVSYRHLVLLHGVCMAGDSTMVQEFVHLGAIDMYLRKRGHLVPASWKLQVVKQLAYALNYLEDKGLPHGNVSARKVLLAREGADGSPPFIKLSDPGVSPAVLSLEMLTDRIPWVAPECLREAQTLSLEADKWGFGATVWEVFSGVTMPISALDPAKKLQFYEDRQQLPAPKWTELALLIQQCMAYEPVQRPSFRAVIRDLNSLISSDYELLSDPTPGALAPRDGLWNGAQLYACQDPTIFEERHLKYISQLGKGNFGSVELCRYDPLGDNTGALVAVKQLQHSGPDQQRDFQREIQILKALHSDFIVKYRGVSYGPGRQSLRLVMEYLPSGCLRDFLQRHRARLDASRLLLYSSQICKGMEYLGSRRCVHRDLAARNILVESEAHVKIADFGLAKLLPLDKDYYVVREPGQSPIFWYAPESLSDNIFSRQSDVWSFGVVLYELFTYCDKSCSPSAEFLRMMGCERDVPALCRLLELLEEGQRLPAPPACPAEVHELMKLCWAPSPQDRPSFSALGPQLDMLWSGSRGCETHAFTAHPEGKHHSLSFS
Experiment: not given
Conditions: not given
An IC50 of 2.1 nM was found for `C[C@@H]1CCN(C(=O)N2CCCCC2)C[C@@H]1n1c(=O)[nH]c2cnc3[nH]ccc3c21` (racemic) in this work.
An IC50 of 2.5 nM was found for `Cc1c[nH]c2ncc3ccn([C@H]4CN(C(=O)CC#N)CC[C@H]4C)c3c12` (racemic) in this work.
An IC50 of 1.1 nM was found for `C[C@@H]1CCN(C(=O)CC#N)C[C@@H]1n1cc(C#N)c2cnc3[nH]ccc3c21` (racemic) in this work.
An IC50 of 0.38 nM was found for `C[C@@H]1CCN(C(=O)CC#N)C[C@@H]1n1ccc2cnc3[nH]cc(C#N)c3c21` (racemic) in this work.

Tested on: not listed separately
Experiment: in vitro
Conditions: PAMPA, pH 6.5, permeability
Description: Permeability of the compound in pH 6.5 incubated for 2 hrs by PAMPA based HPLC analysis
A Papp at 2 h of 11 ×10⁻⁶ cm/s was found for `C[C@@H]1CCN(C(=O)N2CCCCC2)C[C@@H]1n1c(=O)[nH]c2cnc3[nH]ccc3c21` (racemic) in this work.
A Papp at 2 h of 23 ×10⁻⁶ cm/s was found for `Cc1c[nH]c2ncc3ccn([C@H]4CN(C(=O)CC#N)CC[C@H]4C)c3c12` (racemic) in this work.
A Papp at 2 h of 3.8 ×10⁻⁶ cm/s was found for `C[C@@H]1CCN(C(=O)CC#N)C[C@@H]1n1cc(C#N)c2cnc3[nH]ccc3c21` (racemic) in this work.
A Papp at 2 h of 13 ×10⁻⁶ cm/s was found for `C[C@@H]1CCN(C(=O)CC#N)C[C@@H]1n1ccc2cnc3[nH]cc(C#N)c3c21` (racemic) in this work.

Target: Tyrosine-protein kinase JAK2 (Homo sapiens, UniProt O60674)
Sequence (O60674 whole entry): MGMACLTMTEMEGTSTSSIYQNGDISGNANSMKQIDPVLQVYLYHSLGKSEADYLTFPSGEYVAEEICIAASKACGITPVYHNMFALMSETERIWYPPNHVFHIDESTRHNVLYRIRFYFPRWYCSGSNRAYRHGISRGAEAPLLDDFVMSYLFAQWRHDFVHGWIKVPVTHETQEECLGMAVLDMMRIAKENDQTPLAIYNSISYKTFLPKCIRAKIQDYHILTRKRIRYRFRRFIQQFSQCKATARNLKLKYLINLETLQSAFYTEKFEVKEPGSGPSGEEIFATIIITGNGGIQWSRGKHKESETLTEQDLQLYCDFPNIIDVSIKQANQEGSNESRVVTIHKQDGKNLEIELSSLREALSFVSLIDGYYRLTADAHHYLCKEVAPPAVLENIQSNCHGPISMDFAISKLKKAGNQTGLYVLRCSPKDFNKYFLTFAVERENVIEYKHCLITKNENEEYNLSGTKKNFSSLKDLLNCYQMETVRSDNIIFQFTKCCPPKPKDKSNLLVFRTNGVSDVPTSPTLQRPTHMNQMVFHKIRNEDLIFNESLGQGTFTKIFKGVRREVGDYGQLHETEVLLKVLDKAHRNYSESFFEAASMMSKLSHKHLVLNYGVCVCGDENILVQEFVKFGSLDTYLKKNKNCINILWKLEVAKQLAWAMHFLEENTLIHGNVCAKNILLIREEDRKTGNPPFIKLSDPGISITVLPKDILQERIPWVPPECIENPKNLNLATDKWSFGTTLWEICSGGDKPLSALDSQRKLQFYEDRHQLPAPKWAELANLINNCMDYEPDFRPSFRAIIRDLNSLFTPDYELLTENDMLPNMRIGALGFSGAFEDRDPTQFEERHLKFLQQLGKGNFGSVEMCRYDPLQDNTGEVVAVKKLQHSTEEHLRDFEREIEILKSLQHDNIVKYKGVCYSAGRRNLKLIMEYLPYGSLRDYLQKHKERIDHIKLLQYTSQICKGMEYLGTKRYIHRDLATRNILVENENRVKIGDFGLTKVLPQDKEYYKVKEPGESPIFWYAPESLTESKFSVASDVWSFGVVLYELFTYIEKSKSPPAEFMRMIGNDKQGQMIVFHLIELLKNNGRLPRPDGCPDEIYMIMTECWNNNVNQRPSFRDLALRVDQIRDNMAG
Experiment: not given
Conditions: not given
An IC50 of 7 nM was found for `C[C@@H]1CCN(C(=O)N2CCCCC2)C[C@@H]1n1c(=O)[nH]c2cnc3[nH]ccc3c21` (racemic) in this work.
An IC50 of 4.9 nM was found for `Cc1c[nH]c2ncc3ccn([C@H]4CN(C(=O)CC#N)CC[C@H]4C)c3c12` (racemic) in this work.
An IC50 of 2.2 nM was found for `C[C@@H]1CCN(C(=O)CC#N)C[C@@H]1n1cc(C#N)c2cnc3[nH]ccc3c21` (racemic) in this work.
An IC50 of 4.1 nM was found for `C[C@@H]1CCN(C(=O)CC#N)C[C@@H]1n1ccc2cnc3[nH]cc(C#N)c3c21` (racemic) in this work.

Tested on: not listed separately
Experiment: in vitro
Conditions: Sprague-Dawley, rat, liver microsomes, CLH
A CLint scaled at 0.75 h, 0.2 µM of 249 mL/min/kg was found for `C[C@@H]1CCN(C(=O)N2CCCCC2)C[C@@H]1n1c(=O)[nH]c2cnc3[nH]ccc3c21` (racemic) in this work.
A CLint scaled at 0.75 h, 0.2 µM of 309 mL/min/kg was found for `Cc1c[nH]c2ncc3ccn([C@H]4CN(C(=O)CC#N)CC[C@H]4C)c3c12` (racemic) in this work.
A CLint scaled at 0.75 h, 0.2 µM of 47 mL/min/kg was found for `C[C@@H]1CCN(C(=O)CC#N)C[C@@H]1n1cc(C#N)c2cnc3[nH]ccc3c21` (racemic) in this work.
A CLint scaled at 0.75 h, 0.2 µM of 419 mL/min/kg was found for `C[C@@H]1CCN(C(=O)CC#N)C[C@@H]1n1ccc2cnc3[nH]cc(C#N)c3c21` (racemic) in this work.

Target: Tyrosine-protein kinase JAK1 (Homo sapiens, UniProt P23458)
Sequence (P23458 whole entry): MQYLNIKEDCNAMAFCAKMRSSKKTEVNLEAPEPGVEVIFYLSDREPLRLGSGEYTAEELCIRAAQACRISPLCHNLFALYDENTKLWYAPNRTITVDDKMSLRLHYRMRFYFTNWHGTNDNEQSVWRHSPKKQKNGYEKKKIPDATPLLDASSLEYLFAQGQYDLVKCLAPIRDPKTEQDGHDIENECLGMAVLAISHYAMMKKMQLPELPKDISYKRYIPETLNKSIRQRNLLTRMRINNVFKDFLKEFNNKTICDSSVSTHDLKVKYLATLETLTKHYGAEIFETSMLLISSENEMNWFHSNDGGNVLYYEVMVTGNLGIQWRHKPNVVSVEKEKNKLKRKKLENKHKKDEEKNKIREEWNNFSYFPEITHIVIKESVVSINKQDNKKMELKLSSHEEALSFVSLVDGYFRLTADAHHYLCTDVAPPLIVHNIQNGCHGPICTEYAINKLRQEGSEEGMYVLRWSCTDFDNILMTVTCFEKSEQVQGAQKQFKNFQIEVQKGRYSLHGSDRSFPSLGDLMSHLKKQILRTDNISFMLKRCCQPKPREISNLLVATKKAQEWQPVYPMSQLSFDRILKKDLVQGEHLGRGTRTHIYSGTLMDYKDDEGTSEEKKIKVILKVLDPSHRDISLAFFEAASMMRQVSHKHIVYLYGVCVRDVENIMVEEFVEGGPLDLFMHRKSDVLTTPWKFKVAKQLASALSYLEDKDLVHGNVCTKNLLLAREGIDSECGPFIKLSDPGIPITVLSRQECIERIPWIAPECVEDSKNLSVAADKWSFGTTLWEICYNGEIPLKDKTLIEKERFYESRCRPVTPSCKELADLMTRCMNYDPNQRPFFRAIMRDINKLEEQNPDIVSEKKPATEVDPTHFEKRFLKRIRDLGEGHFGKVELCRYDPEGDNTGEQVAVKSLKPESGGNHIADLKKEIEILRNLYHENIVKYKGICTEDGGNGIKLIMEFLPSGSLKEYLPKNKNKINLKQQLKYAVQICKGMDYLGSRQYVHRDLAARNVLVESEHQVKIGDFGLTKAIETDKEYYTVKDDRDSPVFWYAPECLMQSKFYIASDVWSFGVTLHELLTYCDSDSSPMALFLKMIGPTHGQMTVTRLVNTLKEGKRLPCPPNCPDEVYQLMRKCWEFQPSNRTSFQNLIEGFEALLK
Experiment: not given
Conditions: not given
An IC50 of 13 nM was found for `C[C@@H]1CCN(C(=O)N2CCCCC2)C[C@@H]1n1c(=O)[nH]c2cnc3[nH]ccc3c21` (racemic) in this work.

Target: CYP3A4 (Homo sapiens, UniProt P08684)
Sequence (P08684 whole entry): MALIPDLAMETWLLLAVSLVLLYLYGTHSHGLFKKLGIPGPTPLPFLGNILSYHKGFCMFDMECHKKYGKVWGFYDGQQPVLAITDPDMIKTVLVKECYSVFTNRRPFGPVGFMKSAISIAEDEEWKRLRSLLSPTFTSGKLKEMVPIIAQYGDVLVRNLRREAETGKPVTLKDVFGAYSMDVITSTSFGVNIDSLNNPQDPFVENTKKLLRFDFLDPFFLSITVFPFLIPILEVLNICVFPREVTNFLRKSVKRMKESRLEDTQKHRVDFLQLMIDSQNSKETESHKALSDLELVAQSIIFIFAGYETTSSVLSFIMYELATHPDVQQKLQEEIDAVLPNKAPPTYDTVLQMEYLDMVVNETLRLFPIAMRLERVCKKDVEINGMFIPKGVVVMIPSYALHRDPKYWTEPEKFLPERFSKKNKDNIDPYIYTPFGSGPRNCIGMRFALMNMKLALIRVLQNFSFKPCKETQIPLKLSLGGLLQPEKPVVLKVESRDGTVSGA
Experiment: in vitro
Conditions: liver microsomes, probe midazolam, TDI
An inhibition at 20 min, 5 µM of 11% was found for `C[C@@H]1CCN(C(=O)N2CCCCC2)C[C@@H]1n1c(=O)[nH]c2cnc3[nH]ccc3c21` (racemic) in this work.
An inhibition at 20 min, 5 µM of 62% was found for `Cc1c[nH]c2ncc3ccn([C@H]4CN(C(=O)CC#N)CC[C@H]4C)c3c12` (racemic) in this work.
An inhibition at 20 min, 5 µM of 91% was found for `C[C@@H]1CCN(C(=O)CC#N)C[C@@H]1n1cc(C#N)c2cnc3[nH]ccc3c21` (racemic) in this work.
An inhibition at 20 min, 5 µM of 90% was found for `C[C@@H]1CCN(C(=O)CC#N)C[C@@H]1n1ccc2cnc3[nH]cc(C#N)c3c21` (racemic) in this work.
